Results from PubChem BioAssay AID1918958 (Molecular Pharmacology Branch, DTP, NCI, 2023).
Several values for one entry are separate records, joined by “and”; a condition that tells them apart may be missing. Equal entries are not always repeated.

Tested on: NCI-H196 complex spheroid viability
Test: Anticancer human tumor NCI-H196 cell line growth inhibition [LSD1];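 also: spheroids exposed to agents for 7 days before readout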;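 as to viability, T/C: 100% = DMSO vehicle control viability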
Conditions: for viability, T/C: stronger effect = lower value
How it was run: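 Multicellular complex spheroids of tumor cells with human endothelial cells (HUVEC) and mesenchymal stem cells; the LSD1 inhibitor iadademstat was combined with standard-of-care or investigational agents. Top concentration at or near clinical Cmax, half-log dilutions; final DMSO ≤0.25%.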

[1] = curve of first compound, second compound 0.1 µM
[2] = curve of first compound, second compound 0.316 µM
[3] = curve of first compound, second compound 1 µM
[4] = curve of first compound, second compound 3.16 µM
[5] = curve of first compound, second compound 10 µM

Q: For `CC(C)CC(NC(=O)C(Cc1ccccc1)NC(=O)c1cnccn1)B(O)O` (stereo unspecified) + NC1CCC(NC2CC2c2ccccc2)CC1, which IC50 [1] is on record?
A: The IC50 was 0.529 nM.

Q: And the IC50 [2]?
A: Its IC50 is 0.555 nM.

Q: And the IC50 [3]?
A: The IC50 was 0.572 nM.

Q: And the IC50 [4]?
A: The IC50 was 0.508 nM.

Q: What about the IC50 [5] of the same molecule?
A: The IC50 was 0.511 nM.

Q: What about the viability, T/C (second compound 0.1 µM, first compound 0.000316 µM) of the same molecule?
A: The viability, T/C was 84.1%.

Q: And the viability, T/C (second compound 0.1 µM, first compound 0.001 µM)?
A: The viability, T/C was 7.65%.

Q: And the viability, T/C (second compound 0.1 µM, first compound 0.00316 µM)?
A: Its viability, T/C is 4.44%.

Q: What about the viability, T/C (second compound 0.1 µM, first compound 0.01 µM) of the same molecule?
A: The viability, T/C was 3.35%.

Q: What about the viability, T/C (second compound 0.1 µM, first compound 0.0316 µM) of the same molecule?
A: The viability, T/C was 1.92%.

Q: What about the viability, T/C (second compound 0.1 µM, first compound 0.1 µM) of the same molecule?
A: The viability, T/C was 1.52%.

Q: What about the viability, T/C (second compound 0.316 µM, first compound 0.000316 µM) of the same molecule?
A: The viability, T/C was 87.9%.

Q: And the viability, T/C (second compound 0.316 µM, first compound 0.001 µM)?
A: Its viability, T/C is 10.3%.

Q: What about the viability, T/C (second compound 0.316 µM, first compound 0.00316 µM) of the same molecule?
A: Its viability, T/C is 3.34%.

Q: And the viability, T/C (second compound 0.316 µM, first compound 0.01 µM)?
A: The viability, T/C was 2.71%.

Q: And the viability, T/C (second compound 0.316 µM, first compound 0.0316 µM)?
A: The viability, T/C was 2.22%.

Q: What about the viability, T/C (second compound 0.316 µM, first compound 0.1 µM) of the same molecule?
A: Its viability, T/C is 0.68%.

Q: What about the viability, T/C (second compound 1 µM, first compound 0.000316 µM) of the same molecule?
A: Its viability, T/C is 95.9%.

Q: And the viability, T/C (second compound 1 µM, first compound 0.001 µM)?
A: The viability, T/C was 6.67%.

Q: And the viability, T/C (second compound 1 µM, first compound 0.00316 µM)?
A: Its viability, T/C is 3.82%.

Q: What about the viability, T/C (second compound 1 µM, first compound 0.01 µM) of the same molecule?
A: Its viability, T/C is 2.43%.

Q: And the viability, T/C (second compound 1 µM, first compound 0.0316 µM)?
A: Its viability, T/C is 2.03%.

Q: What about the viability, T/C (second compound 1 µM, first compound 0.1 µM) of the same molecule?
A: Its viability, T/C is 0.58%.

Q: What about the viability, T/C (second compound 3.16 µM, first compound 0.000316 µM) of the same molecule?
A: Its viability, T/C is 80.8%.

Q: And the viability, T/C (second compound 3.16 µM, first compound 0.001 µM)?
A: The viability, T/C was 5.93%.

Q: And the viability, T/C (second compound 3.16 µM, first compound 0.00316 µM)?
A: The viability, T/C was 3.18%.

Q: What about the viability, T/C (second compound 3.16 µM, first compound 0.01 µM) of the same molecule?
A: The viability, T/C was 2.05%.

Q: What about the viability, T/C (second compound 3.16 µM, first compound 0.0316 µM) of the same molecule?
A: The viability, T/C was 2.04%.

Q: And the viability, T/C (second compound 3.16 µM, first compound 0.1 µM)?
A: Its viability, T/C is 0.46%.

Q: What about the viability, T/C (second compound 10 µM, first compound 0.000316 µM) of the same molecule?
A: The viability, T/C was 82.5%.

Q: What about the viability, T/C (second compound 10 µM, first compound 0.001 µM) of the same molecule?
A: Its viability, T/C is 4.35%.

Q: And the viability, T/C (second compound 10 µM, first compound 0.00316 µM)?
A: The viability, T/C was 2.41%.

Q: What about the viability, T/C (second compound 10 µM, first compound 0.01 µM) of the same molecule?
A: The viability, T/C was 1.45%.

Q: And the viability, T/C (second compound 10 µM, first compound 0.0316 µM)?
A: The viability, T/C was 0.95%.

Q: What about the viability, T/C (second compound 10 µM, first compound 0.1 µM) of the same molecule?
A: The viability, T/C was 0.47%.

Q: Which results are given for `COc1cc(C2c3cc4c(cc3C(OC3OC5COC(C)OC5C(O)C3O)C3COC(=O)C23)OCO4)cc(OC)c1O` (stereo unspecified)?
A: viability, T/C (compound 0.00949 µM): 98.3% and 98.5%; viability, T/C (compound 0.03 µM): 99.7% and 101%; viability, T/C (compound 0.0949 µM): 98.6% and 112%; viability, T/C (compound 0.3 µM): 108% and 112%; viability, T/C (compound 0.949 µM): 90.5% and 81.5%; viability, T/C (compound 3 µM): 65.7% and 59.9%; IC50 (curve of compound): > 3000 nM

Q: Which results are given for `CCc1c2c(nc3ccc(O)cc13)-c1cc3c(c(=O)n1C2)COC(=O)[C@]3(O)CC` + NC1CCC(NC2CC2c2ccccc2)CC1?
A: IC50 [1]: 10 nM; IC50 [2]: 9.56 nM; IC50 [3]: 11 nM; IC50 [4]: 10.1 nM; IC50 [5]: 11.4 nM; viability, T/C (second compound 0.1 µM, first compound 0.000949 µM): 113%; viability, T/C (second compound 0.1 µM, first compound 0.003 µM): 104%; viability, T/C (second compound 0.1 µM, first compound 0.00949 µM): 52.8%; viability, T/C (second compound 0.1 µM, first compound 0.03 µM): 3.31%; viability, T/C (second compound 0.1 µM, first compound 0.0949 µM): 0.73%; viability, T/C (second compound 0.1 µM, first compound 0.3 µM): 1.14%; viability, T/C (second compound 0.316 µM, first compound 0.000949 µM): 123%; viability, T/C (second compound 0.316 µM, first compound 0.003 µM): 104%; viability, T/C (second compound 0.316 µM, first compound 0.00949 µM): 52.5%; viability, T/C (second compound 0.316 µM, first compound 0.03 µM): 3.77%; viability, T/C (second compound 0.316 µM, first compound 0.0949 µM): 1.18%; viability, T/C (second compound 0.316 µM, first compound 0.3 µM): 0.82%; viability, T/C (second compound 1 µM, first compound 0.000949 µM): 120%; viability, T/C (second compound 1 µM, first compound 0.003 µM): 111%; viability, T/C (second compound 1 µM, first compound 0.00949 µM): 57.1%; viability, T/C (second compound 1 µM, first compound 0.03 µM): 2.51%; viability, T/C (second compound 1 µM, first compound 0.0949 µM): 0.62%; viability, T/C (second compound 1 µM, first compound 0.3 µM): 0.86%; viability, T/C (second compound 3.16 µM, first compound 0.000949 µM): 109%; viability, T/C (second compound 3.16 µM, first compound 0.003 µM): 91.2%; viability, T/C (second compound 3.16 µM, first compound 0.00949 µM): 55.3%; viability, T/C (second compound 3.16 µM, first compound 0.03 µM): 2%; viability, T/C (second compound 3.16 µM, first compound 0.0949 µM): 0.56%; viability, T/C (second compound 3.16 µM, first compound 0.3 µM): 1.03%; viability, T/C (second compound 10 µM, first compound 0.000949 µM): 113%; viability, T/C (second compound 10 µM, first compound 0.003 µM): 98.7%; viability, T/C (second compound 10 µM, first compound 0.00949 µM): 60.1%; viability, T/C (second compound 10 µM, first compound 0.03 µM): 3.63%; viability, T/C (second compound 10 µM, first compound 0.0949 µM): 0.8%; viability, T/C (second compound 10 µM, first compound 0.3 µM): 0.85%

Q: `NC1CC1c1ccc(-c2cccc(O)c2)cc1` (stereo unspecified) was tested. Which viability, T/C (compound 0.316 µM) did it give?
A: The viability, T/C was 95.9% [middle of 25 runs].

Q: And the viability, T/C (compound 1 µM)?
A: Its viability, T/C is 97.8% [middle of 25 runs].

Q: And the IC50 (compound alone, run of 02/21/2022)?
A: Its IC50 is over 10000 nM.

Q: `Nc1ncn(C2CC(O)C(CO)O2)c(=O)n1` (stereo unspecified) was tested. Which viability, T/C (compound 0.00316 µM) did it give?
A: Its viability, T/C is 106% and 105%.

Q: What about the viability, T/C (compound 0.01 µM) of the same molecule?
A: Its viability, T/C is 92.3% and 102%.

Q: And the viability, T/C (compound 0.0316 µM)?
A: Its viability, T/C is 95.5% and 99.8%.

Q: And the viability, T/C (compound 0.1 µM)?
A: Its viability, T/C is 101% and 103%.

Q: And the viability, T/C (compound 0.316 µM)?
A: Its viability, T/C is 100% and 102%.

Q: What about the viability, T/C (compound 1 µM) of the same molecule?
A: Its viability, T/C is 93.5% and 97.9%.

Q: And the IC50 (curve of compound)?
A: The IC50 was over 1000 nM.

Q: How did the viability, T/C (compound 0.00949 µM) turn out when `NS(=O)(=O)OCC1CC(n2ccc3c(NC4CCc5ccccc54)ncnc32)CC1O` (stereo unspecified) was run?
A: The viability, T/C was 109% and 80.7%.

Q: What about the viability, T/C (compound 0.03 µM) of the same molecule?
A: The viability, T/C was 94.8% and 79.4%.

Q: What about the viability, T/C (compound 0.0949 µM) of the same molecule?
A: Its viability, T/C is 75.2% and 67.4%.

Q: What about the viability, T/C (compound 0.3 µM) of the same molecule?
A: The viability, T/C was 83.8% and 77.4%.

Q: What about the viability, T/C (compound 0.949 µM) of the same molecule?
A: Its viability, T/C is 79.3% and 74.5%.

Q: What about the viability, T/C (compound 3 µM) of the same molecule?
A: The viability, T/C was 67.7% and 66.8%.

Q: And the IC50 (curve of compound)?
A: The IC50 was over 3000 nM.

Q: `Nc1ncn(C2CC(O)C(CO)S2)c(=O)n1` (stereo unspecified) was tested. Which viability, T/C (compound 0.000949 µM) did it give?
A: The viability, T/C was 96.8% and 102%.

Q: And the viability, T/C (compound 0.003 µM)?
A: Its viability, T/C is 105% and 111%.

Q: And the viability, T/C (compound 0.00949 µM)?
A: Its viability, T/C is 103% and 106%.

Q: And the viability, T/C (compound 0.03 µM)?
A: The viability, T/C was 106% and 111%.

Q: What about the viability, T/C (compound 0.0949 µM) of the same molecule?
A: Its viability, T/C is 111% and 116%.

Q: What about the viability, T/C (compound 0.3 µM) of the same molecule?
A: The viability, T/C was 100% and 104%.

Q: What about the IC50 (curve of compound) of the same molecule?
A: Its IC50 is over 300 nM.
